Measurements: patent publication EP0303387B1, “Kynurenic acid derivatives useful in the treatment of neurodegenerative disorders” (MERCK SHARP & DOHME LTD., priority 1987, dated 1989)
Structures can show the parent of a compound that is named as a salt.

Target: T1, NMDA receptor (Rattus norvegicus, UniProt P35439)
T1 construct: from tissue; host or cells: rat cortical slice
Experiment: antagonism of responses to NMDA, rat cortical slice preparation
Assay type: cell-based
Conditions: not given
Experimental: The effects of compounds of the invention on responses to the agonists NMDA, kainate and quisqualate were assessed using the rat cortical slice preparation as described by Wong et al., Proc. Natl. Acad. Sci. USA, 1986, 83, 7104. The apparent equilibrium constants (Kb) were calculated from the righthand shift in the agonist concentration-response curve.
In the case of `O=C(O)c1cc(O)c2ccc(Br)cc2n1` [7-bromo-4-oxo-1,4-dihydroquinoline-2-carboxylic acid], the Kb is reported as less than 100 µM.

Same assay, conditions: rat cortical slice; apparent equilibrium constant (Kb) calculated from righthand shift in the agonist concentration-response curve; read-out: NMDA antagonist activity at concentrations (Kb)
For `Cc1cc(C)c2c(O)cc(C(=O)O)nc2c1` [5,7-Dimethyl-4-oxo-1,4-dihydroquinoline-2-carboxylic acid], the Kb was less than 100 µM. `CCc1cc(Br)cc2nc(C(=O)O)cc(O)c12` [7-Bromo-5-ethyl-4-oxo-1,4-dihydroquinoline-2-carboxylic acid] showed a Kb of less than 100 µM. In the case of `CCc1cc(Cl)cc2nc(C(=O)O)cc(O)c12` [7-Chloro-5-ethyl-4-oxo-1,4-dihydroquinoline-2-carboxylic acid], the Kb is reported as less than 100 µM. Compound `O=C(O)c1cc(O)c2c(Cl)cccc2n1` [5-chloro-4-oxo-1,4-dihydroquinoline-2-carboxylic acid] has a Kb of less than 100 µM. Work on `O=C(NOCc1ccccc1)c1cc(=O)c2c(Cl)cc(Cl)cc2[nH]1` [5,7-Dichloro-4-oxo-1,4-dihydroquinoline-2-(O-benzyl)hydroxamic acid] yielded a Kb of less than 100 µM. Compound `Cc1ccc2c(O)cc(C(=O)O)nc2c1` [7-methyl-4-oxo-1,4-dihydroquinoline-2-carboxylic acid] has a Kb of less than 100 µM. For `Cc1cccc2nc(C(=O)O)cc(O)c12` [5-methyl-4-oxo-1,4-dihydroquinoline-2-carboxylic acid], the Kb was less than 100 µM. For `Cc1cc(Br)cc2nc(C(=O)O)cc(O)c12` [7-Bromo-5-methyl-4-oxo-1,4-dihydroquinoline-2-carboxylic acid], the Kb was less than 100 µM. Work on `O=C(O)c1cc(O)c2c(Cl)cc(I)cc2n1` [5-Chloro-7-iodo-4-oxo-1,4-dihydroquinoline-2-carboxylic acid] yielded a Kb of less than 100 µM. For `O=C(NO)c1cc(=O)c2c(Cl)cc(Cl)cc2[nH]1` [5,7-Dichloro-4-oxo-1,4-dihydroquinoline-2-hydroxamic acid potassium salt.], the Kb was less than 100 µM. In the case of `O=C(O)c1cc(O)c2ccc(Cl)cc2n1` [7-chloro-4-oxo-1,4-dihydroquinoline-2-carboxylic acid], the Kb is reported as less than 100 µM. With `O=C(O)c1cc(=O)c2c(Br)cccc2[nH]1` [5-bromo-4-oxo-1,4-dihydroquinoline-2-carboxylic acid] the Kb was less than 100 µM. Work on `O=C(O)c1cc(O)c2c(Cl)cc(Cl)cc2n1` [5,7-dichloro-4-oxo-1,4-dihydroquinoline-2-carboxylic acid] yielded a Kb of less than 100 µM. For `O=C(O)c1cc(=O)c2ccc([N+](=O)[O-])cc2[nH]1` [7-nitro-4-oxo-1,4-dihydroquinoline-2-carboxylic acid], the Kb was less than 100 µM. `O=C(O)c1cc(O)c2c(Br)cc(Br)cc2n1` [5,7-dibromo-4-oxo-1,4-dihydroquinoline-2-carboxylic acid] showed a Kb of less than 100 µM. Compound `O=C(O)c1cc(O)c2ccc(F)cc2n1` [7-fluoro-4-oxo-1,4-dihydroquinoline-2-carboxylic acid] has a Kb of less than 100 µM. For `O=C(O)c1cc(O)c2c(I)cccc2n1` [5-Iodo-4-oxo-1,4-dihydroquinoline-2-carboxylic acid], the Kb was less than 100 µM. With `O=C(O)c1cc(O)c2ccc(I)cc2n1` [7-iodo-4-oxo-1,4-dihydroquinoline-2-carboxylic acid] the Kb was less than 100 µM. In the case of `O=C(O)c1cc(=O)c2c(F)cccc2[nH]1` [5-Fluoro-4-oxo-1,4-dihydroquinoline-2-carboxylic acid], the Kb is reported as less than 100 µM. `O=C(O)c1cc(=O)c2c(C(F)(F)F)cccc2[nH]1` [5-Trifluoromethyl-4-oxo-1,4-dihydroquinoline-2-carboxylic acid] gave a Kb of less than 100 µM. In the case of `O=C(O)c1cc(=O)c2cc(F)ccc2[nH]1` [6-fluoro-4-oxo-1,4-dihydroquinoline-2-carboxylic acid], the Kb is reported as less than 100 µM. `CCc1cc(Br)c2c(O)cc(C(=O)O)nc2c1` [5-Bromo-7-ethyl-4-oxo-1,4-dihydroquinoline-2-carboxylic acid] showed a Kb of less than 100 µM. `Cc1cc(Br)c2c(O)cc(C(=O)O)nc2c1` [5-Bromo-7-methyl-4-oxo-1,4-dihydroquinoline-2-carboxylic acid] showed a Kb of less than 100 µM. In the case of `CCc1cc(Cl)c2c(O)cc(C(=O)O)nc2c1` [5-Chloro-7-ethyl-4-oxo-1,4-dihydroquinoline-2-carboxylic acid], the Kb is reported as less than 100 µM. Compound `Cc1cc(I)cc2nc(C(=O)O)cc(O)c12` [7-Iodo-5-methyl-4-oxo-1,4-dihydroquinoline-2-carboxylic acid] has a Kb of less than 100 µM. For `CCc1cccc2nc(C(=O)O)cc(O)c12` [5-Ethyl-4-oxo-1,4-dihydroquinoline-2-carboxylic acid], the Kb was less than 100 µM. `O=C(O)c1cc(O)c2c(I)cc(Cl)cc2n1` [7-Chloro-5-iodo-4-oxo-1,4-dihydroquinoline-2-carboxylic acid] gave a Kb of less than 100 µM. `Cc1cc(I)c2c(O)cc(C(=O)O)nc2c1` [5-Iodo-7-methyl-4-oxo-1,4-dihydroquinoline-2-carboxylic acid] gave a Kb of less than 100 µM.

System: excitatory amino acid receptors
Experiment: not given
Conditions: statement in words; R.H. Evans et al., Br. J. Pharmac., 1987, 91, 531; cited from earlier work
For `O=C(O)c1cc(=O)c2ccccc2[nH]1` [Kynurenic acid, 4-oxo-1,4-dihydroquinoline-2-carboxylic acid], the “antagonist of excitatory amino acid receptors” value is given as “weak and non-selective antagonist”.
